{"source": "paper PMC10657792", "about": "“Downstream Allosteric Modulation of NMDA Receptors by 3-Benzazepine Derivatives” (Molecular Neurobiology, 2023)", "type_in_all_cases": "cell-based", "key": {"GluN1a wt/ GluN2B Q110A": {"biological_target": "GluN1a wt/ GluN2B Q110A (Rattus norvegicus, UniProt P35439+Q00960, Q110A)", "assay": "TEVC recording in X. laevis oocytes, GluN2B mutant screening", "conditions": "fitted curve"}, "GluN1a wt/ GluN2B F176A": {"biological_target": "GluN1a wt/ GluN2B F176A (Rattus norvegicus, UniProt P35439+Q00960, F176A)", "assay": "TEVC recording in X. laevis oocytes, GluN2B mutant screening", "conditions": "fitted curve", "protocol": "(§1) Single point mutations were incorporated into template DNA (GluN1-1b wt/ pSGEM and GluN2B wt/ pSGEM) by using the QuikChange II XL site-directed mutagenesis kit (Agilent Technologies, Germany). Mutagenesis primers were designed using the QuikChange Primer Design Program (Agilent) and provided by Microsynth (Microsynth AG, Balgach, Switzerland). For mutation of the desired amino acid in the gene, PCR amplification was performed with the respective mutagenesis primers (Eppendorf MasterCycler Gradient, Eppendorf Hamburg, Germany). Mutations were verified by automated DNA sequencing. Constructs were linearized with PacI (GluN1) or NheI (GluN2B). cRNA was prepared byin vitrotranscription using the mMessage mMachine T7 kit (Life Technologies, Darmstadt, Germany).\n(§2) The NMDAR was expressed in stage V and VI oocytes originated from X. laevis. Oocytes were provided by Ecocyte Bioscience (Dortmund, Germany), and equimolar amounts of wild-type and mutated GluN1 and GluN2B cRNA were injected (0.8 ng each). The oocytes were incubated in Barth’s solution, containing (mmol l^−1): 88 NaCl, 1 KCl, 0.4 CaCl2, 0.33 Ca(NO3)2, 0.6 MgSO4, 5 TRIS–HCl, 2.4 NaHCO3, supplemented with 80 mg l^−1 theophylline, 63 mg l^−1 benzylpenicillin, 40 mg l^−1 streptomycin, and 100 mg l^−1 gentamycin and maintained at 18 °C until usage. After injection, the oocytes were incubated for 5 days at 18 °C. Subsequently, the activity of the expressed NMDARs in the oocytes was recorded by two-electrode voltage clamp (TEVC).\n(§3) The compounds were retrieved as 10 mM stock solutions in DMSO and were subsequently diluted with agonist solution and adjusted to 0.1% DMSO concentration. Inhibition of each compound was measured via TEVC in X. laevis oocytes at room temperature using a Turbo Tec 10CX amplifier (NPI electronic, Tamm, Germany), NI USB 6221 DA/AD Interface (National Instruments, Austin, USA), and GePulse Software (Dr. Michael Pusch, Genova, Italy). Ba^2+-Ringer, consisting of 10 mM HEPES, 90 mM NaCl, 1 mM KCl, and 1.5 mM BaCl2, adjusted to pH 7.4, was used for TEVC measurements. Agonist solution containing 10 µM glycine and 10 µM (S)-glutamate was prepared in Ba^2+-Ringer, and the measurements were performed at a holding potential of − 70 mV, using electrodes with a glass capillary filled with 3 M KCl and a resistance between 0.5 and 1.5 MΩ. The compounds were tested by applying ascending concentrations, ranging from 1 to 30,000 nM, in at least six oocytes. Example traces for all recorded conditions can be found in Supplementary Figs. S2–S9.\n(§4) TEVC data were analyzed using Ana (Dr. Michael Pusch, Genova, Italy), and statistics were performed using OriginPro 2020 (OriginLab Corporation, Northampton, USA). The inhibitory effect of each compound is calculated using the following equation: inhibition=1-Ic-Ih/Ia-Ih where Ih describes the current in the absence of agonists; Ia represents the steady-state current in the presence of the agonists; and Ic is defined as the steady-state after binding of agonist and compound. All dose response curves are fitted to the following logistic equation: y=A1-A2/1+x/x0^p+A2 where A1 describes the minimal inhibition of a compound and was set to 0; A2 represents the maximal inhibition of a compound; p is the slope of the curve; x0 is defined as the concentration at half-maximal inhibition; and x is the tested concentration. Data were statistically analyzed by one-way ANOVA and Tukey post-hoc mean comparison test in OriginPro 2020 (OriginLab Corporation, Northampton, USA). p values are indicated by * for p < 0.05, ** for p < 0.01, and *** for p < 0.001."}, "GluN1b wt/ GluN2B E236A": {"biological_target": "GluN1b wt/ GluN2B E236A (Rattus norvegicus, UniProt P35439+Q00960, E236A)", "sequence (Q00960 27-1482 E236A, other chains not shown)": "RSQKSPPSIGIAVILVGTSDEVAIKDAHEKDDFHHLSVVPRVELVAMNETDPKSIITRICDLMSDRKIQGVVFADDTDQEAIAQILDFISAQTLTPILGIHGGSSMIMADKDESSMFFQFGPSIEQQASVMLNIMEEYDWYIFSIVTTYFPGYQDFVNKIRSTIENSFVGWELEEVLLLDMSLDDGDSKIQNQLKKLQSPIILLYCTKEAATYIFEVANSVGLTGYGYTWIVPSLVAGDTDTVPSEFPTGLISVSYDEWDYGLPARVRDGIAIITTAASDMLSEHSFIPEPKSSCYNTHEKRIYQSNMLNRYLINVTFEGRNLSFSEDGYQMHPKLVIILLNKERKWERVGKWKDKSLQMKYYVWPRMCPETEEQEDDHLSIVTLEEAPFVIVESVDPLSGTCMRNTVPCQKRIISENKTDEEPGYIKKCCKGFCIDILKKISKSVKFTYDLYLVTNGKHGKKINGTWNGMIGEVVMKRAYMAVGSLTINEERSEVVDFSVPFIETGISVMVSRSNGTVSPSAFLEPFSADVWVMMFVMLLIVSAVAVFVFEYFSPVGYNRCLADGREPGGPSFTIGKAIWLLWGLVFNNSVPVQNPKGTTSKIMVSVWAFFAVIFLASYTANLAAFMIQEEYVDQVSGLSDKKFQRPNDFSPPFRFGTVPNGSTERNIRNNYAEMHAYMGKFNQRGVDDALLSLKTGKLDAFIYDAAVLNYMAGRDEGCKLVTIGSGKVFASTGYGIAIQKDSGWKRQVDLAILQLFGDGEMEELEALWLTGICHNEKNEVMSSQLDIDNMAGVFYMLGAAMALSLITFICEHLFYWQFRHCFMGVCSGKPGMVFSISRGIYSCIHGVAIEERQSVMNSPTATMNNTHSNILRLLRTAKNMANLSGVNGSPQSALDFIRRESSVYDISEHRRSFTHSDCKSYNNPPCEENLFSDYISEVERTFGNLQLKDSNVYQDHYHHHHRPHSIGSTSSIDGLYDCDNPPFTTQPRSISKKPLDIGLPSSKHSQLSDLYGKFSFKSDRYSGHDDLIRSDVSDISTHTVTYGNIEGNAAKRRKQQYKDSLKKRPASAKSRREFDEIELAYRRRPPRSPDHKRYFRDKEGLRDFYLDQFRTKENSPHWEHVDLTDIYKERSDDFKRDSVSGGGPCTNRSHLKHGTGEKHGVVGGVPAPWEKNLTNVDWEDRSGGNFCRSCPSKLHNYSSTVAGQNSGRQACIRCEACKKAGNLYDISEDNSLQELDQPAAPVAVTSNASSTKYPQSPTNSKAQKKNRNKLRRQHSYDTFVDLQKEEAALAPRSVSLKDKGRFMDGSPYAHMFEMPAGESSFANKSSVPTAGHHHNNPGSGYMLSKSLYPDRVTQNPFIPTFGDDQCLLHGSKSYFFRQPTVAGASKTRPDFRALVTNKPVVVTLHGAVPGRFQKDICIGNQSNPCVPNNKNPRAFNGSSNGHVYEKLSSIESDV", "assay": "TEVC recording in X. laevis oocytes, GluN2B mutant screening", "protocol": "as §1, §2, §3, §4"}, "GluN1b wt/ GluN2B F114A": {"biological_target": "GluN1b wt/ GluN2B F114A (Rattus norvegicus, UniProt P35439+Q00960, F114A)", "assay": "TEVC recording in X. laevis oocytes, GluN2B mutant screening", "conditions": "fitted curve", "protocol": "as §1, §2, §3, §4"}, "[1]": {"biological_target": "GluN1b wt/ GluN2B N192A/F194A (Rattus norvegicus, UniProt P35439+Q00960, F194A/N192A)", "sequence (Q00960 27-1482 N192A/F194A, other chains not shown)": "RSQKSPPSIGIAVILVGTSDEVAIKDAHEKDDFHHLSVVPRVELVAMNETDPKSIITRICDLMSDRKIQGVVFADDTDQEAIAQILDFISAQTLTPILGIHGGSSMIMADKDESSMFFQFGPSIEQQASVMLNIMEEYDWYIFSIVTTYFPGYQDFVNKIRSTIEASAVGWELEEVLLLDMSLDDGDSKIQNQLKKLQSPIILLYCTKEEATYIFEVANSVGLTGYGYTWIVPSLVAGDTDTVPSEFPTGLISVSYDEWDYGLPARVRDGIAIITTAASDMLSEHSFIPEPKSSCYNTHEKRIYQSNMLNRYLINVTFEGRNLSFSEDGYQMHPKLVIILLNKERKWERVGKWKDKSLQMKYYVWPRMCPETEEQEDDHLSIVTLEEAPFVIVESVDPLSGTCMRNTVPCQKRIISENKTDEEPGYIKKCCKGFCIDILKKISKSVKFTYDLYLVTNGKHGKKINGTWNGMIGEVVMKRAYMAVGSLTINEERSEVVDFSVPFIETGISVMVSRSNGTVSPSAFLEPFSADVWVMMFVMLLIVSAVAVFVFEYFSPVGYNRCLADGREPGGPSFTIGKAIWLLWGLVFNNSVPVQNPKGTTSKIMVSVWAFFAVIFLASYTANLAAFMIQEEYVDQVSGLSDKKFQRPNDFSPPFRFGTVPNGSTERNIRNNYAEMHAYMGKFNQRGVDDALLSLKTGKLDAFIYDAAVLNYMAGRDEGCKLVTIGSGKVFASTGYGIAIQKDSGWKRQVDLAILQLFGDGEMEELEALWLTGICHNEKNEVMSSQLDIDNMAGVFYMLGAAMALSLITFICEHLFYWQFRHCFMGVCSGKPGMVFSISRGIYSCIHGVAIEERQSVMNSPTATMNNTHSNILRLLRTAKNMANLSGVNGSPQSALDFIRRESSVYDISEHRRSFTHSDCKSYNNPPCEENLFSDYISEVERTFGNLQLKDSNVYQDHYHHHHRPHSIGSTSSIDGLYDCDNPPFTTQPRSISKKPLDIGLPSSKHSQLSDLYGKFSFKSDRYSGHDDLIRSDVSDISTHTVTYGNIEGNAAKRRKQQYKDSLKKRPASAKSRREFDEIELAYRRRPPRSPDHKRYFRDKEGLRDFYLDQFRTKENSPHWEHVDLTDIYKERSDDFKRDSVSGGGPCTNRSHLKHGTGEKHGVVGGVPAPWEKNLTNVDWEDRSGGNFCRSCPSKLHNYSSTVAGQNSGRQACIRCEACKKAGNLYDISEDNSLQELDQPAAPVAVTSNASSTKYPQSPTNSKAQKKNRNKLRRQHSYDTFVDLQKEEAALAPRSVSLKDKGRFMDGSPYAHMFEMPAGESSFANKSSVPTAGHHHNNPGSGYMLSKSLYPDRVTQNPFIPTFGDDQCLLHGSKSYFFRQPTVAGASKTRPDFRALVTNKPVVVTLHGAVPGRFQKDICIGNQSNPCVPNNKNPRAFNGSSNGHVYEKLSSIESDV", "assay": "TEVC recording in X. laevis oocytes, GluN2B mutant screening", "protocol": "as §1, §2, §3, §4"}, "GluN1b wt/ GluN2B Q110A": {"biological_target": "GluN1b wt/ GluN2B Q110A (Rattus norvegicus, UniProt P35439+Q00960, Q110A)", "sequence (Q00960 27-1482 Q110A, other chains not shown)": "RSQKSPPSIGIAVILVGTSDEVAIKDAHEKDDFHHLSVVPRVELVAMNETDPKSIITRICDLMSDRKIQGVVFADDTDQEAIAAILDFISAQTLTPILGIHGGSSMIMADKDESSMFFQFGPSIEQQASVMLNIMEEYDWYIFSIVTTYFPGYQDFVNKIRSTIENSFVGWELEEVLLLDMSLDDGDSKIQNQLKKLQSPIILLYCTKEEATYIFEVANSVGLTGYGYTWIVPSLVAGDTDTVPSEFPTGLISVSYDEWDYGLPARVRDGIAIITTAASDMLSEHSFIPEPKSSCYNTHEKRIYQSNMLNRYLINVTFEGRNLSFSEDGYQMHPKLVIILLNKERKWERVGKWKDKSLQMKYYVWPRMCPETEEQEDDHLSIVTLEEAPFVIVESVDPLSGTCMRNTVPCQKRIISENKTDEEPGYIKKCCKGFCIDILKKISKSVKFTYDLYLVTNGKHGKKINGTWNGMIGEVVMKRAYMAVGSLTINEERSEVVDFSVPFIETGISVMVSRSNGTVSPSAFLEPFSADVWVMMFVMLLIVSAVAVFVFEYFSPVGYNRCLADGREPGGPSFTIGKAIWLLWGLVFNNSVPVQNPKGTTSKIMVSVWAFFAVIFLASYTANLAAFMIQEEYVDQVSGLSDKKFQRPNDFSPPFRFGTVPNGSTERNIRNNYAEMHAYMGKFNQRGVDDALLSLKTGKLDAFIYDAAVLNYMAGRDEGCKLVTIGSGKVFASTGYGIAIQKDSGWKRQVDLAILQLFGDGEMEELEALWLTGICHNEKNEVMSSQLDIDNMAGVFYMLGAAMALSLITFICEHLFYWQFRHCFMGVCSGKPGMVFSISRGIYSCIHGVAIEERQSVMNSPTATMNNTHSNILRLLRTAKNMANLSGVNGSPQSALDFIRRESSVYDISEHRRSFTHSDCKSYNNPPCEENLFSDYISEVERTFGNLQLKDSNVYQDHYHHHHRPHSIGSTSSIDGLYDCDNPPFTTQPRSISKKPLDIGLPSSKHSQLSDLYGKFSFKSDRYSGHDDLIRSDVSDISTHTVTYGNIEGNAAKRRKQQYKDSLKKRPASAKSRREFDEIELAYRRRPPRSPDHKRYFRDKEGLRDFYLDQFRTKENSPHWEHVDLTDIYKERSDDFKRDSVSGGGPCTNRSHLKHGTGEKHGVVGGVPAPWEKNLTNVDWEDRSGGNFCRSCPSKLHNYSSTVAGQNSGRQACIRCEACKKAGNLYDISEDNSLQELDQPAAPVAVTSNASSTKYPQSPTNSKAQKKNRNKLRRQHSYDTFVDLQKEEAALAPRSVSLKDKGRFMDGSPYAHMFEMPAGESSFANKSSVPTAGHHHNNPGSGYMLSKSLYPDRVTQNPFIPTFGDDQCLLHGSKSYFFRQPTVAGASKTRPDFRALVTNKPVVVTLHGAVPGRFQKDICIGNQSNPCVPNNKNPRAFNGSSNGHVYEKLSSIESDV", "assay": "TEVC recording in X. laevis oocytes, GluN2B mutant screening", "protocol": "as §1, §2, §3, §4"}, "GluN1a wt/ GluN2B wt": {"biological_target": "GluN1a wt/ GluN2B wt (Rattus norvegicus, UniProt P35439+Q00960)", "assay": "TEVC recording in X. laevis oocytes in the presence of agonists and 200 µM spermine", "conditions": "agonists + 200 µM spermine; fitted curve", "protocol": "as §2\nas §3, with “The compounds were tested by applying ascending concentrations, ranging from 1 to 30,000 nM, in at least six oocytes.” left out\nas §4, with “All dose response curves are fitted to the following logistic equation: y=A1-A2/1+x/x0^p+A2 where A1 describes the minimal inhibition of a compound and was set to 0; A2 represents the maximal inhibition of a compound; p is the slope of the curve; x0 is defined as the concentration at half-maximal inhibition; and x is the tested concentration.” left out\n(§5) The NMDAR is probably modulated by polyamines such as spermine and spermidine in a similar way to exon 5 [22]. As described above, we recorded GluN1-1a/GluN2B and GluN1-1b/GluN2B expressing oocytes with 200 µM spermine and ascending concentrations of (R)-OF-NB1, to examine if the allosteric effects are mechanically in conjunction or can be potentiated. […]"}, "GluN1b wt/ GluN2B wt": {"biological_target": "GluN1b wt/ GluN2B wt (Rattus norvegicus, UniProt P35439+Q00960)", "assay": "TEVC recording in X. laevis oocytes in the presence of agonists and 200 µM spermine", "conditions": "agonists + 200 µM spermine; fitted curve", "protocol": "as §2\nas §3, with “The compounds were tested by applying ascending concentrations, ranging from 1 to 30,000 nM, in at least six oocytes.” left out\nas §4, with “All dose response curves are fitted to the following logistic equation: y=A1-A2/1+x/x0^p+A2 where A1 describes the minimal inhibition of a compound and was set to 0; A2 represents the maximal inhibition of a compound; p is the slope of the curve; x0 is defined as the concentration at half-maximal inhibition; and x is the tested concentration.” left out\nas §5"}, "[2]": {"conditions": "agonists 10 µM glycine + 10 µM (S)-glutamate"}, "[3]": {"conditions": "agonists 10 µM glycine + 10 µM (S)-glutamate, fitted curve"}}}
{"smiles": "Oc1ccc2c(c1)CCN(CCCCc1ccccc1F)C[C@@H]2O", "note": "[(R)-OF-NB1]", "values": [{"measurement": "IC50", "setting": "GluN1a wt/ GluN2B Q110A; [2]", "result": 210, "unit": "nM"}, {"measurement": "Hill coefficient", "setting": "GluN1a wt/ GluN2B Q110A", "result": 5.4}, {"measurement": "Hill coefficient", "setting": "GluN1a wt/ GluN2B F176A", "result": 0.5}, {"measurement": "inhibition at 1 µM", "setting": "GluN1b wt/ GluN2B E236A; GluN1-1b/E236A, compound concentration 1 μM, single oocytes", "result": 39.5, "unit": "%"}, {"measurement": "inhibition at 10 µM", "setting": "GluN1b wt/ GluN2B E236A; GluN1-1b/E236A, compound concentration 10 μM, single oocytes", "result": 51.9, "unit": "%"}, {"measurement": "inhibition at 30 µM", "setting": "GluN1b wt/ GluN2B E236A; GluN1-1b/E236A, compound concentration 30 μM, single oocytes", "result": 61.6, "unit": "%"}, {"measurement": "IC50", "setting": "GluN1b wt/ GluN2B E236A; [3]", "result": 3.15, "unit": "µM"}, {"measurement": "Hill coefficient", "setting": "GluN1b wt/ GluN2B E236A; fitted curve", "result": 0.6}, {"measurement": "IC50", "setting": "GluN1b wt/ GluN2B F114A; [2]", "result": 14.2, "unit": "µM"}, {"measurement": "Hill coefficient", "setting": "GluN1b wt/ GluN2B F114A", "result": 0.9}, {"measurement": "inhibition at 1 µM", "setting": "[1]; GluN1-1b GluN2B N192A/F194A, compound concentration 1 μM, single oocytes", "result": 23.8, "unit": "%"}, {"measurement": "inhibition at 10 µM", "setting": "[1]; GluN1-1b GluN2B N192A/F194A, compound concentration 10 μM, single oocytes", "result": 35.6, "unit": "%"}, {"measurement": "inhibition at 30 µM", "setting": "[1]; GluN1-1b GluN2B N192A/F194A, compound concentration 30 μM, single oocytes", "result": 37, "unit": "%"}, {"measurement": "IC50", "setting": "[1]; [3]", "result": 7.52, "unit": "µM"}, {"measurement": "Hill coefficient", "setting": "[1]; fitted curve", "result": 0.3}, {"measurement": "inhibition at 10 µM", "setting": "GluN1b wt/ GluN2B Q110A; GluN1-1b/Q110A, compound concentration 10 μM, single oocytes", "result": 78.4, "unit": "%"}, {"measurement": "inhibition at 30 µM", "setting": "GluN1b wt/ GluN2B Q110A; GluN1-1b/Q110A, compound concentration 30 μM, single oocytes", "result": 84.2, "unit": "%"}, {"measurement": "IC50", "setting": "GluN1b wt/ GluN2B Q110A; [3]", "result": 519, "unit": "nM"}, {"measurement": "Hill coefficient", "setting": "GluN1b wt/ GluN2B Q110A; fitted curve", "result": 1.2}, {"measurement": "Hill coefficient", "setting": "GluN1a wt/ GluN2B wt", "result": 1.4}, {"measurement": "IC50", "setting": "GluN1a wt/ GluN2B wt", "result": 359, "unit": "nM"}, {"measurement": "Hill coefficient", "setting": "GluN1b wt/ GluN2B wt", "result": 1.8}, {"measurement": "IC50", "setting": "GluN1b wt/ GluN2B wt", "result": 522, "unit": "nM"}]}
